Experimental data: ChEMBL document CHEMBL3875218, “Bifunctional conjugates with potent inhibitory activity towards cyclooxygenase and histone deacetylase” (Bioorg Med Chem, 2017)
The source made the active and inactive calls. No cut-off for these calls is given here.

Experiments:
LNCaP [1] = assay: Inhibition of HDAC in human LNCAP cells assessed as down regulation of COX2 expression at 2 to 10 uM after 24 hrs by Western blot analysis; assay type: cell-based
Histone deacetylase 1 = Histone deacetylase 1 (Homo sapiens, UniProt Q13547); assay: Inhibition of HDAC1 (unknown origin) after 24 hrs by SAMDI mass spectroscopic analysis
Sequence of Histone deacetylase 1 (Q13547 whole entry): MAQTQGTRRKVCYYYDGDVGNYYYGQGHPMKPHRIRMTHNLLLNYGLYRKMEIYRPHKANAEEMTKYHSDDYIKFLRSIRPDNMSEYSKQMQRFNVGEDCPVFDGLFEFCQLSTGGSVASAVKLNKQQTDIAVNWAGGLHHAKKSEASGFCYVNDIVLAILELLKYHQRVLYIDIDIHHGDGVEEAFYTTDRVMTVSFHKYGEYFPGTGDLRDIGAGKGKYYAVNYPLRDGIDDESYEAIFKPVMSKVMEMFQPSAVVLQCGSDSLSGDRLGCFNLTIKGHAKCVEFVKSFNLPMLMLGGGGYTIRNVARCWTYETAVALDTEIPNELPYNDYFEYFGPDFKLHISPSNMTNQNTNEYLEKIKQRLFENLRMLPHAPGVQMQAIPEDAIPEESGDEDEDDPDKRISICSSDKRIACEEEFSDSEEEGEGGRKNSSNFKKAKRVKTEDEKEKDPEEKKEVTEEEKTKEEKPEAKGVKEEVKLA

Histone deacetylase 2 = Histone deacetylase 2 (Homo sapiens, UniProt Q92769); assay: Inhibition of HDAC2 (unknown origin) after 24 hrs by SAMDI mass spectroscopic analysis
Sequence of Histone deacetylase 2 (Q92769 whole entry): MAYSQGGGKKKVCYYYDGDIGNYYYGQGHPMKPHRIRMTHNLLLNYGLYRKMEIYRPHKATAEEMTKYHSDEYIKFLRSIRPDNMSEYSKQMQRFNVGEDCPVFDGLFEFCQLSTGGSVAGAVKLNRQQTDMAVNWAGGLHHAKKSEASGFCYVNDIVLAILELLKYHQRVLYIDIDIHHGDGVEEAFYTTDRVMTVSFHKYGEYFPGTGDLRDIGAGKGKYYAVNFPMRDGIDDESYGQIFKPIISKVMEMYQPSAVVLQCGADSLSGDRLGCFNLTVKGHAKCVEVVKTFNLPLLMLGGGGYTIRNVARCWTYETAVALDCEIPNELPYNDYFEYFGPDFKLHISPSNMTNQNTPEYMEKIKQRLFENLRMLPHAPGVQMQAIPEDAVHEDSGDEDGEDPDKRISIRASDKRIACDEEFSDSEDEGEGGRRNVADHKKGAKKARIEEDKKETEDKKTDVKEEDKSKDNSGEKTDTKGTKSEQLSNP

[2] = biological target: T1, Prostaglandin G/H synthase 1 (Ovis aries, UniProt P05979); assay: Inhibition of sheep COX1 using arachidonic acid as substrate preincubated for 15 mins followed by substrate addition for 2 mins by Cayman based fluorescence assay
T1 sequence (P05979 whole entry): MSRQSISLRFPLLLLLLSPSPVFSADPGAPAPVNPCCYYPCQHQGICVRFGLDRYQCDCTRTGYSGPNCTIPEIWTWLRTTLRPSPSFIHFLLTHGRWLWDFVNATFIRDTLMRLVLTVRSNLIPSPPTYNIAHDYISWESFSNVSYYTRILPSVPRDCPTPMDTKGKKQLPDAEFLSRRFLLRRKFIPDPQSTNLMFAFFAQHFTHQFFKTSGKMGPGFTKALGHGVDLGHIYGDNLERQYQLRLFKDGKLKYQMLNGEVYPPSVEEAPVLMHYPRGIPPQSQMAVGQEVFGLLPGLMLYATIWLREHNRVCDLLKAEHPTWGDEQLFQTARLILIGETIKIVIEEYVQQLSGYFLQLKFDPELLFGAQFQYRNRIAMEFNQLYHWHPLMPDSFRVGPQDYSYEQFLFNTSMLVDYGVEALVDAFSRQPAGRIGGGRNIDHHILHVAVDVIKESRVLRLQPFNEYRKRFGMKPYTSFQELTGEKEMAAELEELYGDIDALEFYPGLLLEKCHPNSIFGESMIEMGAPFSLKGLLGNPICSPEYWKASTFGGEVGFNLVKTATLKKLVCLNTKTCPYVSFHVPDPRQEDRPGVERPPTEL

[3] = biological target: T2, Protein deacetylase HDAC6 (Homo sapiens, UniProt Q9UBN7); assay: Inhibition of HDAC6 (unknown origin) after 20 hrs by SAMDI mass spectroscopic analysis
T2 sequence (Q9UBN7 whole entry): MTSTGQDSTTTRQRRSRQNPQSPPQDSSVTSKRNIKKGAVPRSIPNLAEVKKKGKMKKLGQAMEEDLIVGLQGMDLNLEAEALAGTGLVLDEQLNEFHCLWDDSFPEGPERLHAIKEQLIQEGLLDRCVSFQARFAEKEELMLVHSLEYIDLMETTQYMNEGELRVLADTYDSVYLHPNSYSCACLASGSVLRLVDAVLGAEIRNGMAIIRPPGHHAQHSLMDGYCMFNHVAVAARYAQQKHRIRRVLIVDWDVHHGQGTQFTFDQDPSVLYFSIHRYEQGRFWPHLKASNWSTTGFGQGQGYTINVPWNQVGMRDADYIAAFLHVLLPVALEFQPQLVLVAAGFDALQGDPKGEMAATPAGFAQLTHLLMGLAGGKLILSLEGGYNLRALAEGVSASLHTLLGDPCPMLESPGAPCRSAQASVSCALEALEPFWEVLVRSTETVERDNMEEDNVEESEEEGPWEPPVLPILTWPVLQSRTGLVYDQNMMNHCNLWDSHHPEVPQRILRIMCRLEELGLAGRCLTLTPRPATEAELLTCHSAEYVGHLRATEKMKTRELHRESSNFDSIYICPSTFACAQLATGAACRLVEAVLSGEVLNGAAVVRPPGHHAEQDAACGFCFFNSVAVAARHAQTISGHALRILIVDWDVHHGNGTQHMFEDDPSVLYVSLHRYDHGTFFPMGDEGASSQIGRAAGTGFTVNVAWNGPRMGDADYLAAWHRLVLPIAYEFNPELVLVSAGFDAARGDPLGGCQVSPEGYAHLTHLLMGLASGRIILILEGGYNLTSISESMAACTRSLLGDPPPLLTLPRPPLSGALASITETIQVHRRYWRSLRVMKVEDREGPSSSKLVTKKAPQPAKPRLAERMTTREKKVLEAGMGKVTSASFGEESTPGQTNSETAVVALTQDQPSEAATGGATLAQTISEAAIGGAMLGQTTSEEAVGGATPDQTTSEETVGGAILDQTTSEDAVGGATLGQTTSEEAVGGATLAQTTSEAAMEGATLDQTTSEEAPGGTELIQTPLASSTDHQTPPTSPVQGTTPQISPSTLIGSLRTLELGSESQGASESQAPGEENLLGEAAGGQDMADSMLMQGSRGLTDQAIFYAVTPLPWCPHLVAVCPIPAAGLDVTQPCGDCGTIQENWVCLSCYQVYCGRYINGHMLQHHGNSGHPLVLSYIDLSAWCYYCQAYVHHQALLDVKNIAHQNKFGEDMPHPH

Histone deacetylase 8 = biological target: T3, Histone deacetylase 8 (Homo sapiens, UniProt Q9BY41); assay: Inhibition of HDAC8 (unknown origin) after 2.5 hrs by SAMDI mass spectroscopic analysis
T3 sequence (Q9BY41 whole entry): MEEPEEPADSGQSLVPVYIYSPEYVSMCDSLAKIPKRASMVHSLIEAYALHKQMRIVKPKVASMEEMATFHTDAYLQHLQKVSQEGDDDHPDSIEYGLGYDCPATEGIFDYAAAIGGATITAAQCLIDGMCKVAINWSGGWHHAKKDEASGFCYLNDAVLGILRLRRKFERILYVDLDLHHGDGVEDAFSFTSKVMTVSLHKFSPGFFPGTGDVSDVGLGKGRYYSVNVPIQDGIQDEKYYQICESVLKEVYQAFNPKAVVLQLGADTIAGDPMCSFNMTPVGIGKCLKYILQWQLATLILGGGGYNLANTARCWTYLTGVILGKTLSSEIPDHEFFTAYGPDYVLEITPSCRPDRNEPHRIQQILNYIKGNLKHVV

LNCaP [4] = assay: Induction of cell cycle arrest in human LNCAP cells assessed as accumulation at G1 phase at 2.5 uM after 24 hrs by propidium iodide staining based FACS analysis (reference value: 69.5%); assay type: functional
LNCaP [5] = assay: Induction of cell cycle arrest in human LNCAP cells assessed as accumulation at greater G2 phase at 2.5 uM after 24 hrs by propidium iodide staining based FACS analysis (reference value: 0.20%); assay type: functional
[6] = Cytotoxicity against human A549 cells assessed as cell growth inhibition after 72 hrs by MTT assay; assay type: functional, cell-based; details: A549, 72 h
LNCaP [7] = assay: Induction of cell cycle arrest in human LNCAP cells assessed as accumulation at S phase at 2.5 uM after 24 hrs by propidium iodide staining based FACS analysis (reference value: […]); assay type: functional
[8] = Cytotoxicity against African green monkey Vero cells assessed as cell growth inhibition after 72 hrs by MTT assay; assay type: toxicity, cell-based; details: African green monkey (Chlorocebus sabaeus)
[9] = Cytotoxicity against human HCT116 cells assessed as cell growth inhibition after 72 hrs by MTT assay; assay type: functional, cell-based; details: HCT-116, 72 h
LNCaP [10] = assay: Induction of cell cycle arrest in human LNCAP cells assessed as accumulation at G2 phase at 2.5 uM after 24 hrs by propidium iodide staining based FACS analysis (reference value: 1.08%); assay type: functional

Row | IC50 (Histone deacetylase 1) | IC50 (Histone deacetylase 2) | IC50 [2] | IC50 [3] | IC50 (Histone deacetylase 8) | Structure (SMILES) | inhibition (LNCaP [1]) | Activity (LNCaP [4]) | Activity (LNCaP [5]) | IC50 [6] | Activity (LNCaP [7]) | IC50 at 72 h [8] | IC50 [9] | Activity (LNCaP [10])
1 | 980 nM | 854 nM | 21000 nM | 49 nM | 109 nM | COc1ccc2c(c1)c(CC(=O)NCCCCCCC(=O)NO)c(C)n2C(=O)c1ccc(Cl)cc1 | Active | 62.5% | 0.35% |  |  |  |  | 
2 | 1030 nM | 4050 nM | 3570 nM | 66 nM | 412 nM | Cc1ccc(-c2cc(C(F)(F)F)nn2-c2ccc(S(=O)(=O)NCCCCCCC(=O)NO)cc2)cc1 |  | 57.4% | 1.67% | 8000 nM | 31.7% | 5530 nM | 3380 nM | 1.4%
